Read-outs that look alike come from different tables or passages of the source.
How the values were obtained:
[1] = cited from earlier work
[2] = test system: hippocampal neurons; test: number of branches of hippocampal neuron dendrite, Specimens 5 to 11; format: cell-based, ICR mouse; details: 0.3 μM added once on culture day 1; MAP2 antibody culture day 4
Procedure: Hippocampal neurons were collected from the juvenile (Day 0 after birth) ICR mouse brain and cultured on a culture dish.
Each specimen was added once to the cells in the initial growth stage (on culture day 1); the resulting cells were immunostained with a MAP2 antibody three days later (on culture day 4), and the number of branches of the dendrite was quantified.
The measurement was performed by drawing 20 μm to 100 μm concentric circles (not shown) at an interval of 10 μm with a soma as a center and counting the number of dendrites crossing the circles.
A line graph of the number of dendrite crossings counted for each distance from the soma was drawn and a Student's t-test, paired (t-test, two tailed distribution) was carried out using an area under the line graph (Area under the Curve: AUC).
When the number of cases of a specimen was sufficient, the test was performed while eliminating the maximum and minimum values. The concentrations of the specimens to be added were each 0.3 μM.

[3] = test system: human glioma U251 cells (Sig1-R transfected cells); test: intracellular ATP concentration in human glioma U251 cells; format: cell-based
Procedure: To cultured human glioma US251 cells (Sig1-R transfected cells) were added Specimens 1 and 2, respectively and intercomparison was performed between intracellular ATP concentration after addition and that without addition (Cont.). […] It is to be noted that fluorescence measurement was performed 6 hours after the administration of the specimens.

[4] = lipophilicity, hydrophobicity and stability; format: physicochemical
[5] = test system: mitochondrial Ca^2+ concentration in cerebral cortex and hippocampal neurons; test: K+ depolarization-induced mitochondrial Ca2+ increase in brain slices after intraperitoneal administration; format: in vivo, C57BL/6N mice
Procedure: One of adult C57BL/6N mice (from 10 to 17 weeks old, weight: from 28 to 31 g) was intraperitoneally administered with physiological saline (Control) and the other one with Specimen 3 (10 μg/kg). After 22 hours, a thin brain slice preparation of each mouse including the cortex and the hippocampus was made. Depolarization of a cellular membrane was caused by the addition of 80 mM KCl (80K) to an extracellular fluid and an increase in mitochondrial Ca^2+ concentration resulting therefrom was measured by a fluorescent method with Rhod-2 (Note 1). Positive participation of Specimen 3 to the ATP activity in mitochondria was indirectly verified (Note 3) by using, as an index, how the Ca^2+ concentration to be increased by 80K (Note 2) is suppressed by Specimen 3 in the brain slice.
(Note 1) Rhod-2: Ca^2+ fluorescent dye selectively incorporated in mitochondria
(Note 2) The depolarization of the neuronal membrane by 80K occurs due to both the flow of Ca^2+ from the outside to the inside of the cell and the release of Ca^2+ from an intracellular Ca store. The free Ca^2+ which has increased in the cell easily enters the mitochondria, an intracellular independent organ.
(Note 3) The free Ca^2+ which has increased in the neuronal cytoplasm due to 80K stimulation-induced depolarization speedily and immediately transmits into the mitochondria from the cytoplasm. A decrease in the mitochondrial free Ca^2+ concentration caused by the specimen occurs because the free Ca^2+ is scooped out of the cell by an outward Ca pump present in the neuron cytoplasm membrane or adsorption and fixing to a portion inside the mitochondria. Energy for it is supplied from ATP produced in the mitochondria. Based on the results thus obtained, intraperitoneally injected Specimen 3 passes from the blood to glia (astrocyte) cells and is then, incorporated in the mitochondria in the cerebral cortex or hippocampal neuron, by which ATP production in the mitochondria is activated and neurons are activated. […]
Fluorescence measurement results of a mitochondrial Ca^2+ increase are plotted along the ordinate.

[6] = test system: mitochondrial calcium concentration; test: mitochondrial calcium concentration in brain slice preparations exposed to 80K ACSF, 24 h after subcutaneous administration; format: in vivo, mouse (C57B/6NL)
Procedure: (§1) Formation of brain slice preparation and measurement of calcium concentration: Used was a whole brain half-cut preparation obtained by cutting a whole brain slice (300 μm) of a mouse (C57B/6NL), pretreated with Specimen 1 for 24 hours by subcutaneous administration, at a median line. […] The resulting preparation was placed in a chamber provided on a stage of an inverted fluorescence microscope (Olympus IX71), covered with a piece of black cotton, fixed with a platinum ring, and refluxed (70 ml/hr) in ACSF aerated with 95% O2 and 5% CO2. A fluorescent image of the preparation was acquired using a 4× objective lens and respective images of the hippocampal ventral part and cerebral cortex temporal region were obtained in one screen. For the measurement of a mitochondrial calcium concentration, a change in intensity of red fluorescence (>600 nm) caused by excitation light at 580 nm was determined and for the measurement of a cytoplasmic calcium concentration, a ratio of fluorescence (>500 nm) between excitation at 360 nm and that at 380 nm was determined. A hippocampal CA1 site and a cerebral cortex were used as two regions of interest (ROI).
(§2) In water was dissolved β-NMN to give a 10 mg/kg, 30 mg/kg, or 100 mg/kg solution; Specimen 1 was dissolved in an alcohol to give a solution of 1 mg/ml and then the resulting solution was diluted with water to give a 0.01 mg/kg, 0.1 mg/kg or 1.0 mg/kg solution; and they were subcutaneously administered to mice 24 hours before the formation of the preparation (0.1 ml/10 g).
(§3) In the present test, an operation of exposing the brain preparations formed from mice administered with two drugs having respective concentrations to isotonic 80 mM KCl-ACSF (artificial cerebrospinal fluid) for 5 minutes and then returning them in normal ACSF for 5 minutes was performed three successive times to give a severe calcium load to the preparations. Variations in cytoplasmic and mitochondrial calcium concentrations at that time were measured.
FIG. 31A to FIG. 32C show the quantification results of the effects of β-NMN and Specimen 1 (TND1128) at each concentration. In FIG. 31A to FIG. 32C, FIG. 31A and FIG. 32A show the results of calculating a mitochondrial calcium concentration, as AUC (Area under the curve), for 35 minutes from 5 minutes after starting of the experiment by administration to three times exposure to 80K-ACSF and 5-minute washing (refer to FIG. 37). FIG. 31B. FIG. 31C, FIG. 32B and FIG. 32C show the drug effects on 5-minute 80K administration and 5-minute subsequent washing (1st: from 5 minutes to 15 minutes, 2nd: from 15 minutes to 25 minutes, and 3rd: from 25 minutes to 35 minutes) in the cerebral cortex (CTX) and the hippocampus (CA1), respectively (refer to FIG. 37). A significant difference test was performed using Tukey's method.

[7] = test system: cytoplasmic calcium concentration; test: cytoplasmic calcium concentration in brain slice preparations exposed to 80K ACSF, 24 h after subcutaneous administration; format: in vivo, mouse (C57B/6NL)
Procedure: as §1, §2, §3

[8] = as printed in the method, b201, read-out: Kd

For `CC(=O)OCOC(=O)CN(CC(=O)OCOC(C)=O)c1cc(F)ccc1OCCOc1cc2cc(-c3ncc(C(=O)OCOC(C)=O)o3)oc2cc1N(CC(=O)OCOC(C)=O)CC(=O)OCOC(C)=O` [fura-4F/AM], the Kd [1, 8] is given as 770 µM and the Kd ([1]; read-out: Ca2+ chelating ability (Kd)) is given as 0.77 µM.
For `CCn1c2nc(=O)n(-c3ccccc3)c(=O)c-2cc2c1C=C1CCC3C(CCC4(C)C(O)CCC34)C1(C)C2` (stereo not drawn) [Specimen 8, 5′-Deaza-8′-ethyl-17β-hydroxy-3′-phenylandrost-2,4-dieno[2,3-g]pteridine-2′,4′(3′H, 8′H)-dione], the “number of branches of hippocampal neuron dendrite (AUC of dendrite crossings, t-test vs control)” value [2] was “an effect on dendrite elongation is recognized”.
Work on `Cn1c(=O)nc2n(Cc3ccccc3)c3c(cc-2c1=O)C[C@@]1(C)C(=C3)CC[C@H]2[C@@H]3CC[C@H](O)[C@@]3(C)CC[C@@H]21` yielded a melting point of 215 °C.
Work on `C[C@]12CC[C@H]3[C@@H](CCC4=Cc5c(cc6c(=O)n(-c7ccccc7)c(=O)nc-6n5-c5ccccc5)C[C@@]43C)[C@@H]1CC[C@@H]2O` yielded a melting point of 257 °C.
For `C[C@]12CC[C@H]3[C@@H](CCC4=Cc5c(cc6c(=O)n(-c7ccccc7)c(=O)nc-6n5Cc5ccccc5)C[C@@]43C)[C@@H]1CC[C@@H]2O`, the melting point was 224 °C.
With `O=c1nc2n(-c3ccc(Cl)cc3)c3[nH]c(=O)n(-c4ccccc4)c(=O)c3cc-2c(=O)n1-c1ccccc1` [Specimen 6] the “number of branches of hippocampal neuron dendrite (AUC of dendrite crossings, t-test vs control)” value [2] was “an effect on dendrite elongation is recognized”.
`CCCCn1c2nc(=O)n(-c3ccccc3)c(=O)c-2cc2c1C=C1CC[C@H]3[C@@H]4CC[C@H](O)[C@@]4(C)CC[C@@H]3[C@@]1(C)C2` gave a melting point of 200 °C.
In the case of `Cn1c2nc(=O)n(C)c(=O)c-2cc2c1C=C1CCC3C(CCC4(C)C(O)CCC34)C1(C)C2` (centres unmarked) [Specimen 7], the “number of branches of hippocampal neuron dendrite (AUC of dendrite crossings, t-test vs control)” value [2] is reported as “a statistically significant difference is recognized (p<0.05)”.
For `CCCCn1c2nc(=O)n(C)c(=O)c-2cc2ccccc21` [Specimen 2], the “effectiveness on ATP production compared between specimens” value ([3]; 6 hours after administration) was “more effective than Specimen 1”, the “ATP production amount (intracellular ATP concentration vs without addition)” value ([3]; fluorescence measurement 6 hours after administration) was “significantly increased the ATP production amount” and the “lipophilicity compared with Specimen 1” value [4] was “higher lipophilicity”.
In the case of `Cc1ccc(-n2c3nc(=O)n(C)c(=O)c-3cc3c2C=C2CCC4C(CCC5(C)C(C(C)CCCC(C)C)CCC45)C2(C)C3)cc1C` (centres unmarked) [Specimen 10], the “number of branches of hippocampal neuron dendrite (AUC of dendrite crossings, t-test vs control)” value [2] is reported as “an effect on dendrite elongation is recognized”.
In the case of `CC(=O)OCOC(=O)CN(CC(=O)OCOC(C)=O)c1ccc(C)cc1OCCOc1cc(C2=c3cc4c5c(c3Oc3c2cc2c6c3CCCN6CCC2)CCC[N+]=5CCC4)ccc1N(CC(=O)OCOC(C)=O)CC(=O)OCOC(C)=O` [Xrhod-1/AM], the Kd [1, 8] is given as 700 µM.
In the case of `CCn1c2nc(=O)n(C)c(=O)c-2cc2c1C=C1CC[C@H]3[C@@H]4CC[C@H](O)[C@@]4(C)CC[C@@H]3[C@@]1(C)C2`, the melting point is reported as 260 °C (dec.).
For `Cn1c(=O)nc2n(-c3ccccc3)c3c(cc-2c1=O)C[C@@]1(C)C(=C3)CC[C@H]2[C@@H]3CC[C@H](O)[C@@]3(C)CC[C@@H]21`, the melting point was 215 °C (dec.).
With `Cc1ccc(-n2c3nc(=O)n(-c4ccccc4)c(=O)c-3cc3c2C=C2CCC4C(CCC5(C)C(C(C)CCCC(C)C)CCC45)C2(C)C3)cc1C` (centres unmarked) [Specimen 11] the “number of branches of hippocampal neuron dendrite (AUC of dendrite crossings, t-test vs control)” value [2] was “a statistically significant difference is recognized (p<0.05)”.
With `CC(C)CCCC(C)C1CCC2C3CCC4=Cc5c(cc6c(=O)n(C)c(=O)nc-6n5C)CC4(C)C3CCC12C` (centres unmarked) [Specimen 9] the “number of branches of hippocampal neuron dendrite (AUC of dendrite crossings, t-test vs control)” value [2] was “an effect on dendrite elongation is recognized”.
In the case of `CCn1c2nc(=O)n(C)c(=O)c-2cc2c(=O)n(C)c(=O)[nH]c21` [Specimen 5], the “number of branches of hippocampal neuron dendrite (AUC of dendrite crossings, t-test vs control)” value [2] is reported as “an effect on dendrite elongation is recognized”.
With `CCCCn1c2nc(=O)n(C)c(=O)c-2cc2c1C=C1CCC3C(CCC4(C)C(O)CCC34)C1(C)C2` (stereo not drawn) [Specimen 3, 8′-n-Butyl-5′-deaza-17β-hydroxy-3′-methylandrost-2,4-dieno[2,3-g]pteridine-2′,4′(3′H,8′H)-dione] the “decrease of 80K depolarization-induced increase in mitochondrial Ca2+ concentration, cortex and hippocampal neurons” value ([5]; 10 μg/kg i.p. pretreatment in vivo) was “markedly and at the maximum”, the “variations of mitochondrial Ca2+ concentration on 80K extracellular fluid, cerebral cortex neurons” value ([5]; 10 μg/kg i.p., slice made 22 hours after injection) was “suppression of the Ca^2+ concentration increase and a faster recovery from the Ca^2+ concentration increased by 80K depolarization can be observed” and the “dose at which the maximum inhibitory effect on mitochondrial Ca2+ concentration increase is attained, hippocampal neurons” value ([5]; i.p., 10 μg/kg and 10 mg/kg compared, n=3 slices) was 0.01 mg/kg.
For `NC(=O)c1ccc[n+]([C@@H]2O[C@H](COP(=O)([O-])O)[C@@H](O)[C@H]2O)c1` [β-NMN, Nicotinamide mononucleotide, reference compound], the “physiological response of the preparations under 80K-ACSF stimulation (mitochondrial and cytoplasmic Ca2+ variations)” value ([6]; 100 mg/kg β-NMN, 1 mg/kg Specimen 1) was “the preparations can maintain a markedly stable physiological response”, the “mitochondrial protective function / function stabilizing effect” value ([6]; 24 hours after administration) was “induces significant mitochondrial protective function” and the “mitochondrial calcium concentration as AUC, cerebral cortex (CTX) and hippocampus (CA1)” value ([6]; s.c. 24 h pretreatment, within the dose range studied, Tukey's method) was “a dose response relationship”. The “mitochondrial Ca2+ increase on three times 80K ACSF exposure (time course)” value ([6]; s.c. 24 h pretreatment, β-NMN 10, 30, 100 mg/kg, Specimen 1 0.01, 0.1, 1.0 mg/kg) was “dose-dependently suppress a mitochondrial Ca^2+ increase”, the “effect on drastic increase in cytoplasmic Ca2+ concentration caused by 80K-ACSF” value ([7]; s.c. 24 h pretreatment) was “no significant effect” and the “quantified cytoplasmic Ca2+ (AUC), significant difference” value ([7]; s.c. 24 h pretreatment, all doses) was “a significant difference was not observed at concentrations other than that of the group administered with 10 mg/kg of β-NMN”. The “recovery of cytoplasmic calcium concentration variations at each 80K-ACSF administration” value ([7]; β-NMN 30 or 100 mg/kg, Specimen 1 0.01 to 1.0 mg/kg, s.c. 24 h) was “show similar recovery”.

From patent publication US11806351B2, “Use of coenzyme factor for activation of ATP production in cell” (TERA STONE Co., Ltd, priority 2018, dated 2023)
